Here are results for 52 compounds from patent US11634391B2, “Compounds which are inhibitors of Notum” (UCL BUSINESS LTD, priority 2018, dated 2023).

Counter-ions that a name gives are not always drawn. Some results are limits rather than exact numbers.

This experiment has as its target notum carboxyesterase enzyme (Homo sapiens (Human), UniProt Q6P988). The experiment is described as follows: Biochemical Notum Enzymatic Activity Assay (OPTS substrate, fluorescence). As to conditions: 2 μM OPTS solution, 2.38 nM notum enzyme solution, 1 hour incubation at room temperature, fluorescence ex 485 nm / em 520 nm; n≥2. From the text: Plate layout and measured fluorescence values were input into Dotmatics Studies data management tool.

By IC50 is commonly meant the midpoint of a concentration-inhibition curve. Low readings indicate inhibition by little substance, high ones a need for much substance.

Chain of notum carboxyesterase enzyme (Q6P988 20-496): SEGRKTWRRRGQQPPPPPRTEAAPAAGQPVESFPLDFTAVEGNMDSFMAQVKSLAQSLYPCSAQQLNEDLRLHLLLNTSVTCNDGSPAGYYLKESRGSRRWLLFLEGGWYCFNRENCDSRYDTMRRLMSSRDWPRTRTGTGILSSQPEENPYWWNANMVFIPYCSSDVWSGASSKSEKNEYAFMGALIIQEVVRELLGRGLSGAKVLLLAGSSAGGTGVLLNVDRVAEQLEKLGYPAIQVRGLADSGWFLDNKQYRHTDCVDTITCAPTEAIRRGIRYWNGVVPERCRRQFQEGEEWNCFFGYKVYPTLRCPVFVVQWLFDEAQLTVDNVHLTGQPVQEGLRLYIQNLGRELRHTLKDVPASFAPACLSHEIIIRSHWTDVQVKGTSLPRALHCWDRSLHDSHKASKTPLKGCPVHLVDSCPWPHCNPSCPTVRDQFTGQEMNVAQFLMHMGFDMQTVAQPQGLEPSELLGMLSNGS

The compound `OCc1cn(-c2cccc(Cl)c2Cl)nn1` [Compound 7, (1-(2,3-dichlorophenyl)-1H-1,2,3-triazol-4-yl)methanol] showed an IC50 of 6.77 µM.

As to `OCc1cn(-c2ccc(Cl)c(C3CC3)c2)nn1` [Compound 276, (1-(4-chloro-3-cyclopropylphenyl)-1H-1,2,3-triazol-4-yl)methanol], inhibition was half-maximal at 1.06 µM (IC50).

Regarding `OCc1nnc(-c2ccc(Cl)c(C(F)(F)F)c2)o1` [Compound 296, (5-(4-chloro-3-(trifluoromethyl)phenyl)-1,3,4-oxadiazol-2-yl)methanol], the IC50 turned out to be 0.14 µM. This IC50 is about 7.6-fold lower than that of the compound before.

For `CC(=O)NCc1cn(-c2ccc(Cl)c(Cl)c2)nn1` [Compound 42, N-((1-(3,4-dichlorophenyl)-1H-1,2,3-triazol-4-yl)methyl)acetamide], the IC50 was determined as 19.5 µM.

For `FC(F)(F)c1cc(-c2c[nH]nn2)ccc1Cl` [Compound 50, 4-(4-chloro-3-(trifluoromethyl)phenyl)-1H-1,2,3-triazole], it took 0.0194 µM to reach half-maximal inhibition (IC50). This IC50 lies about 1000-fold lower than the previous one.

For `N#CCn1nc(-c2ccc(Cl)c(C(F)(F)F)c2Cl)oc1=O` [Compound 244, 2-(5-(2,4-dichloro-3-(trifluoromethyl)phenyl)-2-oxo-1,3,4-oxadiazol-3(2H)-yl)acetonitrile], half-maximal inhibition (IC50) was put at 0.411 µM. Against the preceding compound, the IC50 is about 21-fold higher.

As for `OCc1cn(-c2cc(Cl)cc(Cl)c2)nn1` [Compound 27, (1-(3,5-dichlorophenyl)-1H-1,2,3-triazol-4-yl)methanol], the IC50 amounted to 3.03 µM.

On to `N#CNc1nnc(-c2ccc(Cl)c(C(F)(F)F)c2Cl)o1` [Compound 246, N-(5-(2,4-dichloro-3-(trifluoromethyl)phenyl)-1,3,4-oxadiazol-2-yl)cyanamide, ammonia salt], for which the IC50 was determined as 0.0073 µM.

For `NCc1cn(-c2cccc(C(F)(F)F)c2)nn1` [Compound 38, (1-(3-(trifluoromethyl)phenyl)-1H-1,2,3-triazol-4-yl)methanamine hydrochloride], it took 37.5 µM to reach half-maximal inhibition (IC50).

For the compound `OCc1cn(-c2ccccc2F)nn1` [Compound 273, (1-(2-Fluorophenyl)-1H-1,2,3-triazol-4-yl)methanol], the 50% inhibitory concentration (IC50) is 63.6 µM.

Take `N#Cc1nnc(-c2ccccc2)o1` [Compound 132, 5-phenyl-1,3,4-oxadiazole-2-carbonitrile]: the IC50 turned out to be 18.8 µM.

`ClCc1nnc(-c2ccc(Cl)c(Cl)c2)o1` [Compound 125, 2-(chloromethyl)-5-(3,4-dichlorophenyl)-1,3,4-oxadiazole] had an IC50 of 61 µM.

`CC(C)(O)c1cn(-c2ccc(Cl)c(Cl)c2)nn1` [Compound 41, 2-(1-(3,4-dichlorophenyl)-1H-1,2,3-triazol-4-yl)propan-2-ol] showed an IC50 of over 10 µM.

Compound `OCc1cn(-c2ccc(Cl)c(OCc3ccccc3)c2)nn1` [Compound 17, (1-(3-(benzyloxy)-4-chlorophenyl)-1H-1,2,3-triazol-4-yl)methanol] had an IC50 of 5.69 µM.

`Cc1ccc(-c2nnc(O)o2)cc1OC(F)(F)F` [Compound 79, 5-(4-methyl-3-(trifluoromethoxy)phenyl)-1,3,4-oxadiazol-2-ol] came in with an IC50 of 0.036 µM. Compared with the last compound, the IC50 is about 160-fold lower.

Compound `OCc1cn(-c2ccccc2Cl)nn1` [Compound 20, (1-(2-chlorophenyl)-1H-1,2,3-triazol-4-yl)methanol] yielded an IC50 of 39.1 µM.

As to `Cc1nnc(-c2ccc(C3CC3)c(C(F)(F)F)c2)o1` [Compound 190, 2-[4-cyclopropyl-3-(trifluoromethyl)phenyl]-5-methyl-1,3,4-oxadiazole], the half-maximal inhibitory concentration (IC50) came to 0.0887 µM.

`[2H]C([2H])([2H])Oc1nnc(-c2ccc(Cl)c(C(F)(F)F)c2Cl)o1` [Compound 241, 2-(2,4-dichloro-3-(trifluoromethyl)phenyl)-5-(methoxy-d3)-1,3,4-oxadiazole] displayed an IC50 of 0.0036 µM.

In turn, `FC(F)(F)c1cc(-c2nnco2)ccc1C1COC1` [Compound 284, 2-(4-(oxetan-3-yl)-3-(trifluoromethyl)phenyl)-1,3,4-oxadiazole] displayed an IC50 of 4.05 µM. This IC50 lies about 1100-fold higher than the previous one.

Regarding `COc1ccc(-c2cc[nH]n2)c(O)c1` [Compound 57, 5-methoxy-2-(1H-pyrazol-3-yl)phenol], half-maximal inhibition (IC50) was put at 34.2 µM.

Regarding `Nc1nnc(-c2ccc(Cl)cc2)o1` [Compound 156, 2-amino-5-(4-chlorophenyl)-1,3,4-oxadiazole], the IC50 came out at 11.9 µM.

Compound `Clc1ccc(-c2n[nH]c(-c3ccccn3)n2)cc1Cl` [Compound 130, 2-(3-(3,4-dichlorophenyl)-1H-1,2,4-triazol-5-yl)pyridine] registered an IC50 of 0.596 µM.

In turn, `OCc1cn(-c2ccc3nccnc3c2)nn1` [Compound 12, (1-(quinoxalin-6-yl)-1H-1,2,3-triazol-4-yl)methanol] had an IC50 of 52.5 µM.

In turn, `NCc1cn(-c2cc(Cl)cc(Cl)c2)nn1` [Compound 36, (1-(3,5-dichlorophenyl)-1H-1,2,3-triazol-4-yl)methanamine hydrochloride] had an IC50 of 44.6 µM.

The compound `Clc1ccc(-c2cc[nH]n2)cc1Cl` [Compound 55, 3-(3,4-dichlorophenyl)-1H-pyrazole] returned an IC50 of 5.1 µM.

In turn, `FC(F)(F)c1c(Cl)ccc(-n2cnnc2)c1Cl` [Compound 300, 4-(2,4-dichloro-3-(trifluoromethyl)phenyl)-4H-1,2,4-triazole] came in with an IC50 of 1.31 µM.

For the compound `CC(O)c1cn(-c2ccc(Cl)c(Cl)c2)nn1` (stereo not shown) [Compound 40, 1-(1-(3,4-dichlorophenyl)-1H-1,2,3-triazol-4-yl)ethan-1-ol], the IC50 was over 10 µM.

`FC(F)(F)c1cc(-c2cc[nH]n2)ccc1Cl` [Compound 51, 3-(4-chloro-3-(trifluoromethyl)phenyl)-1H-pyrazole] returned a half-inhibitory concentration (IC50) of 1.36 µM. That is a single-digit micromolar value.

Turning to `CNc1nnc(-c2ccc(Cl)c(C(F)(F)F)c2Cl)o1` [Compound 249, 5-(2,4-dichloro-3-(trifluoromethyl)phenyl)-N-methyl-1,3,4-oxadiazol-2-amine], half-maximal inhibition (IC50) required 0.0319 µM.

Regarding `NCc1cn(-c2ccccc2)nn1` [Compound 39, (1-phenyl-1H-1,2,3-triazol-4-yl)methanamine], the half-maximal inhibitory concentration (IC50) came to 4.87 µM.

`FC(F)(F)c1cc(-n2cnnn2)ccc1Cl` [Compound 215, 1-[4-chloro-3-(trifluoromethyl)phenyl]tetrazole] came in with a half-inhibitory concentration (IC50) of 0.457 µM.

As to `FC(F)(F)c1cccc(-n2cnnn2)c1` [Compound 213, 1-[3-(trifluoromethyl)phenyl]tetrazole], half-maximal inhibition (IC50) was put at 4.87 µM.

On to `COc1nnc(-c2cccc(Cl)c2)o1` [Compound 176, 2-(3-chlorophenyl)-5-methoxy-1,3,4-oxadiazole], for which 5.36 µM corresponded to half-maximal inhibition (IC50).

`O=C(O)c1cn(-c2ccc(Cl)c(C(F)(F)F)c2)nn1` [Compound 58, 1-(4-chloro-3-(trifluoromethyl)phenyl)-1H-1,2,3-triazole-4-carboxylic acid]: inhibition was half-maximal at 0.97 µM (IC50).

For the compound `OCc1cn(-c2cccc(C(F)(F)F)c2)nn1` [Compound 275, (1-(3-(trifluoromethyl)phenyl)-1H-1,2,3-triazol-4-yl)methanol], half-maximal inhibition (IC50) was put at 2.23 µM.

In turn, `FC(F)(F)c1cc(-c2nnn[nH]2)ccc1Cl` [Compound 212, 5-[4-chloro-3-(trifluoromethyl)phenyl]-1H-tetrazole] showed an IC50 of 21 µM.

`Cc1cn(-c2ccc(Cl)c(C(F)(F)F)c2Cl)nn1` [Compound 301, 1-(2,4-dichloro-3-(trifluoromethyl)phenyl)-4-methyl-1H-1,2,3-triazole] returned an IC50 of 0.108 µM. This IC50 is about 190-fold lower than that of the compound before.

`FC1CN(c2cc(-n3ccnn3)ccc2C(F)(F)F)C1` [Compound 288, 1-(3-(3-fluoroazetidin-1-yl)-4-(trifluoromethyl)phenyl)-1H-1,2,3-triazole] showed an IC50 of 0.248 µM.

`COc1nnc(-c2ccc(Cl)c(C(F)(F)F)c2Cl)o1` [Compound 243, 2-(2,4-dichloro-3-(trifluoromethyl)phenyl)-5-methoxy-1,3,4-oxadiazole] had a 50% inhibitory concentration (IC50) of 0.0058 µM. Against the preceding compound, the IC50 is about 43-fold lower.

In turn, `COCc1cn(-c2ccc(Cl)c(Cl)c2)nn1` [Compound 43, 1-(3,4-dichlorophenyl)-4-(methoxymethyl)-1H-1,2,3-triazole] came in with an IC50 of 5.04 µM.

For `Nc1nnc(-c2ccccc2)o1` [Compound 137, 5-phenyl-1,3,4-oxadiazol-2-amine], inhibition was half-maximal at 33 µM (IC50).

For the compound `OCc1cn(-c2ccc(Cl)c(C(F)(F)F)c2Cl)nn1` [Compound 277, [1-[2,4-dichloro-3-(trifluoromethyl)phenyl]triazol-4-yl]methanol], the IC50 is 0.0096 µM.

For the compound `OCc1cn(-c2ccc(Cl)cc2Cl)nn1` [Compound 8, (1-(2,4-dichlorophenyl)-1H-1,2,3-triazol-4-yl)methanol], the midpoint of inhibition, the IC50, lay at 7.2 µM. This IC50 is about 750-fold higher than that of the compound before.

`OCCc1cn(-c2ccc(Cl)c(C(F)(F)F)c2)nn1` [Compound 303, 2-[1-[4-chloro-3-(trifluoromethyl)phenyl]triazol-4-yl]ethanol] showed a half-maximal inhibitory concentration (IC50) of 0.149 µM.

Compound `OCc1cn(-c2ccc3c(c2)OCCO3)nn1` [Compound 6, (1-(2,3-dihydrobenzo[b][1,4]dioxin-6-yl)-1H-1,2,3-triazol-4-yl)methanol] gave an IC50 of 44.6 µM.

`NCc1nnc(-c2ccccc2)o1` [Compound 140, (5-phenyl-1,3,4-oxadiazol-2-yl)methanamine] showed an IC50 of 2.94 µM.

For the compound `OCc1cn(-c2ccc(Cl)c(OC(F)(F)F)c2)nn1` [Compound 270, (1-(4-chloro-3-(trifluoromethoxy)phenyl)-1H-1,2,3-triazol-4-yl)methanol], the IC50 is 0.697 µM.

For the compound `FC(F)(F)c1cc(-c2nnco2)cc(C2COC2)c1` [Compound 188, 2-[3-(oxetan-3-yl)-5-(trifluoromethyl)phenyl]-1,3,4-oxadiazole], the half-inhibitory concentration (IC50) was found to be 24.7 µM.

With `Cn1nc(-c2ccc(Cl)cc2)oc1=O` [Compound 229, 5-(4-chlorophenyl)-3-methyl-1,3,4-oxadiazol-2(3H)-one], the IC50 turned out to be 26.1 µM.

For the compound `O=c1cc(-c2ccccc2)cc[nH]1` [Compound 236, 4-phenylpyridin-2(1H)-one], it took 14.1 µM to reach half-maximal inhibition (IC50).

With `OCc1cn(-c2ccc3c(c2)OCO3)nn1` [Compound 4, (1-(benzo[d][1,3]dioxol-5-yl)-1H-1,2,3-triazol-4-yl)methanol], the 50% inhibitory concentration (IC50) was 37.3 µM.

`NCc1cc(-c2ccccc2)no1` [Compound 143, (3-phenylisoxazol-5-yl)methanamine] returned an IC50 of 11.6 µM.
